Legend:
Assay type in all cases: cell-based, human
[1] = test system: LNCaP cells; assay: LNCaP cell proliferation, ASO in combination with MDV3100 (Example 20); details: for Proliferation (% untreated control) in LNCaP without MDV-3100: 5 days
Procedure: (§1) LNCaP cells were plated at 1,000 cells per well. […] ISIS 549148 was included as a negative control. […] After a treatment period of 5 days, the proliferative capacity of the cancer cells was measured with CellTiter 96® AQueous One or CellTiter-Glo® Solution Cell Proliferation kit (Promega), following the manufacturer's instructions. […]

[2] = test system: 22RV1 cells; assay: 22RV1 cell proliferation with/without DHT (MTT); details: RNAiMAX, 5 days
Procedure: 22RV1cells were plated at 1,500 cells per well. […] Separate sets of cells, also treated with each of the antisense oligonucleotides, were treated with DHT added on day 1 at a final concentration of 1 nM. After a treatment period of 5 days, the proliferative ability of the cancer cells was measured using the standard MTT assay. Results are presented in Table 69 as percent inhibition of proliferation, relative to non-treated cells.

[3] = test system: TMPRSS2 mRNA; assay: Time-course TMPRSS2 expression in C4-2B cells
Procedure: C4-2B cells were plated at 1,000 cells per well in complete medium. […] ISIS 549148 was included as a negative control. […] After a treatment period of 8 hours, 24 hours, and 48 hours, AR expression was measured with primer probe set hAR-LTS00943. Results are presented in Tables 70-72 as percent expression of AR, relative to non-treated cells.
Expression analysis of prostate-specific antigen (PSA) and TMPRSS2 were also analyzed. Results are presented in Tables 73-75 as percent inhibition of PSA expression and Tables 76-78 as percent inhibition of TMPRSS2 expression, relative to non-treated cells.

[4] = test system: C4-2B cells; assay: C4-2B cell proliferation, ASO in combination with MDV3100 (Example 21); details: for Proliferation (% untreated control) in C4-2B without MDV-3100: 5 days
Procedure: as §1, with “C4-2B” for “LNCaP”, “One” for “One or CellTiter-Glo®”

[5] = test system: VCaP cells; assay: VCaP apoptosis (Caspase-Glo 3/7); details: VCaP cells, complete medium, 72 hours
Procedure: After a treatment period of 72 hours in complete medium, apoptosis of the cancer cells was measured with Caspase-Glo 3/7 assay (Promega). Results are presented in Tables 117 and 118 as percent apoptosis of the cells, relative to non-treated cells.

[6] = ASO dose 0.04 μM + 0.08 μM MDV-3100
[7] = ASO dose 0.04 μM + 0.4 μM MDV-3100
[8] = ASO dose 0.04 μM + 2.0 μM MDV-3100
[9] = ASO dose 0.04 μM + […] MDV-3100
[10] = ASO dose 0.08 μM + 0.08 μM MDV-3100
[11] = ASO dose 0.08 μM + 0.4 μM MDV-3100
[12] = ASO dose 0.08 μM + 2.0 μM MDV-3100
[13] = ASO dose 0.08 μM + […] MDV-3100
[14] = ASO dose 0.2 μM + 0.08 μM MDV-3100
[15] = ASO dose 0.2 μM + 0.4 μM MDV-3100
[16] = ASO dose 0.2 μM + 2.0 μM MDV-3100
[17] = ASO dose 1.0 μM + 0.08 μM MDV-3100
[18] = ASO dose 1.0 μM + 0.4 μM MDV-3100
[19] = ASO dose 1.0 μM + 2.0 μM MDV-3100

In the case of “GGCTACTACGCCGTCA (3-10-3 (S)-cEt gapmer, chemistry not fully specified) [ISIS 549148, reference compound]”, the “Proliferation (% untreated control) in LNCaP with 0.08 μM MDV-3100” value [1, 6] is reported as 101 % untreated control, the “Proliferation (% untreated control) in LNCaP with 0.4 μM MDV-3100” value [1, 7] is reported as 57 % untreated control and the “Proliferation (% untreated control) in LNCaP with 2.0 μM MDV-3100” value [1, 8] is reported as 42 % untreated control. The “Proliferation (% untreated control) in LNCaP with […] MDV-3100” value [1, 9] was 86 % untreated control, the “Proliferation (% untreated control) in LNCaP without MDV-3100” value ([1]; ASO dose 0.04 μM) was 101 % untreated control and the “Proliferation (% untreated control) in LNCaP with 0.08 μM MDV-3100” value [1, 10] was 93 % untreated control. The “Proliferation (% untreated control) in LNCaP with 0.4 μM MDV-3100” value [1, 11] was 65 % untreated control, the “Proliferation (% untreated control) in LNCaP with 2.0 μM MDV-3100” value [1, 12] was 39 % untreated control and the “Proliferation (% untreated control) in LNCaP with […] MDV-3100” value [1, 13] was 106 % untreated control. For the same sequence, the “Proliferation (% untreated control) in LNCaP without MDV-3100” value ([1]; ASO dose 0.08 μM) was 104 % untreated control, the “Proliferation (% untreated control) in LNCaP with 0.08 μM MDV-3100” value [1, 14] was 89 % untreated control and the “Proliferation (% untreated control) in LNCaP with 0.4 μM MDV-3100” value [1, 15] was 50 % untreated control. The “Proliferation (% untreated control) in LNCaP with 2.0 μM MDV-3100” value [1, 16] was 41 % untreated control, the “Proliferation (% untreated control) in LNCaP with […] MDV-3100” value ([1]; ASO dose 0.2 μM + […] MDV-3100) was 83 % untreated control and the “Proliferation (% untreated control) in LNCaP without MDV-3100” value ([1]; ASO dose 0.2 μM) was 91 % untreated control. The “Proliferation (% untreated control) in LNCaP with 0.08 μM MDV-3100” value [1, 17] was 90 % untreated control, the “Proliferation (% untreated control) in LNCaP with 0.4 μM MDV-3100” value [1, 18] was 48 % untreated control and the “Proliferation (% untreated control) in LNCaP with 2.0 μM MDV-3100” value [1, 19] was 32 % untreated control. The “Proliferation (% untreated control) in LNCaP with […] MDV-3100” value ([1]; ASO dose 1.0 μM + […] MDV-3100) was 59 % untreated control, the “Proliferation (% untreated control) in LNCaP without MDV-3100” value ([1]; ASO dose 1.0 μM) was 82 % untreated control and the “Percent inhibition of 22RV1 cell proliferation” value ([2]; +DHT (1 nM), ASO 1.34 nM) was 0%. For the same sequence, the “Percent inhibition of 22RV1 cell proliferation” value ([2]; +DHT (1 nM), ASO 4.0 nM) was 0%, the “Percent inhibition of 22RV1 cell proliferation” value ([2]; +DHT (1 nM), ASO 13.4 nM) was 3% and the “Percent inhibition of 22RV1 cell proliferation” value ([2]; +DHT (1 nM), ASO 40.0 nM) was 0%. The “Percent inhibition of 22RV1 cell proliferation” value ([2]; −DHT, ASO 1.34 nM) was 0%, the “Percent inhibition of 22RV1 cell proliferation” value ([2]; −DHT, ASO 4.0 nM) was 0% and the “Percent inhibition of 22RV1 cell proliferation” value ([2]; −DHT, ASO 13.4 nM) was 4%. For the same sequence, the “Percent inhibition of 22RV1 cell proliferation” value ([2]; −DHT, ASO 40.0 nM) was 0%, the “Percent inhibition of TMPRSS2 expression compared to the control group in 8 hours” value (“Percent inhibition … in 8 hours” for short) ([3]; 0.04 μM) was 5% and the “Percent inhibition of TMPRSS2 expression compared to the control group in 24 hours” value (“Percent inhibition … in 24 hours” for short) ([3]; 0.04 μM) was 29%. For the same sequence, the “Percent inhibition of TMPRSS2 expression compared to the control group in 48 hours” value (from here on “Percent inhibition … in 48 hours”) ([3]; 0.04 μM) was 0%, the “Percent inhibition … in 8 hours” value ([3]; 0.2 μM) was 0% and the “Percent inhibition … in 24 hours” value ([3]; 0.2 μM) was 10%. For the same sequence, the “Percent inhibition … in 48 hours” value ([3]; 0.2 μM) was 4%, the “Percent inhibition … in 8 hours” value ([3]; 1 μM) was 0% and the “Percent inhibition … in 24 hours” value ([3]; 1 μM) was 29%. The “Percent inhibition … in 48 hours” value ([3]; 1 μM) was 0%, the “Percent inhibition … in 8 hours” value ([3]; 5.0 μM) was 0% and the “Percent inhibition … in 24 hours” value ([3]; 5.0 μM) was 10%. For the same sequence, the “Percent inhibition … in 48 hours” value ([3]; 5.0 μM) was 0%, the “Proliferation (% untreated control) in C4-2B with 0.08 μM MDV-3100” value [4, 6] was 125 % untreated control and the “Proliferation (% untreated control) in C4-2B with 0.4 μM MDV-3100” value [4, 7] was 110 % untreated control. The “Proliferation (% untreated control) in C4-2B with 2.0 μM MDV-3100” value [4, 8] was 40 % untreated control, the “Proliferation (% untreated control) in C4-2B with […] MDV-3100” value [4, 9] was 107 % untreated control and the “Proliferation (% untreated control) in C4-2B without MDV-3100” value ([4]; ASO dose 0.04 μM) was 117 % untreated control. For the same sequence, the “Proliferation (% untreated control) in C4-2B with 0.08 μM MDV-3100” value [4, 10] was 84 % untreated control, the “Proliferation (% untreated control) in C4-2B with 0.4 μM MDV-3100” value [4, 11] was 89 % untreated control and the “Proliferation (% untreated control) in C4-2B with 2.0 μM MDV-3100” value [4, 12] was 47 % untreated control. For the same sequence, the “Proliferation (% untreated control) in C4-2B with […] MDV-3100” value [4, 13] was 110 % untreated control, the “Proliferation (% untreated control) in C4-2B without MDV-3100” value ([4]; ASO dose 0.08 μM) was 111 % untreated control and the “Proliferation (% untreated control) in C4-2B with 0.08 μM MDV-3100” value [4, 14] was 123 % untreated control. For the same sequence, the “Proliferation (% untreated control) in C4-2B with 0.4 μM MDV-3100” value [4, 15] was 88 % untreated control, the “Proliferation (% untreated control) in C4-2B with 2.0 μM MDV-3100” value [4, 16] was 52 % untreated control and the “Proliferation (% untreated control) in C4-2B with […] MDV-3100” value ([4]; ASO dose 0.2 μM + […] MDV-3100) was 124 % untreated control. The “Proliferation (% untreated control) in C4-2B without MDV-3100” value ([4]; ASO dose 0.2 μM) was 118 % untreated control, the “Proliferation (% untreated control) in C4-2B with 0.08 μM MDV-3100” value [4, 17] was 114 % untreated control and the “Proliferation (% untreated control) in C4-2B with 0.4 μM MDV-3100” value [4, 18] was 88 % untreated control. The “Proliferation (% untreated control) in C4-2B with 2.0 μM MDV-3100” value [4, 19] was 59 % untreated control, the “Proliferation (% untreated control) in C4-2B with […] MDV-3100” value ([4]; ASO dose 1.0 μM + […] MDV-3100) was 103 % untreated control and the “Proliferation (% untreated control) in C4-2B without MDV-3100” value ([4]; ASO dose 1.0 μM) was 126 % untreated control. The “Apoptosis (% untreated control)” value ([5]; 1.34 nM) was 131 % untreated control, the “Apoptosis (% untreated control)” value ([5]; 4.0 nM) was 108 % untreated control and the “Apoptosis (% untreated control)” value ([5]; 13.4 nM) was 103 % untreated control. The “Apoptosis (% untreated control)” value ([5]; 40 nM) was 146 % untreated control.
